According to PubChem BioAssay AID248 (DTP/NCI, 2004):
Values joined by “and” are separate entries in the source; they are usually repeats but may differ in a detail not shown here. Equal entries are not always repeated. Toxic doses and inconclusive results are not listed. No stated cut-off is given here; in the data, active means T/C of 150% or more; inactive means T/C below 125%.

Test system: L1210 leukemia ip in BDF1 mice, survival T/C
Assay: NCI In Vivo Anticancer Drug Screen. Data for tumor model L1210 Leukemia (intraperitoneal) in B6D2F1 (BDF1) mice
Settings: endpoint: mean survival time, higher = longer survival
How it was run: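 Antitumor effect is assessed in tumor-bearing animals. Survival in the compound arm is compared with a vehicle-dosed control arm and expressed as their quotient.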

[1] = dose: 50.0 mg/kg/injection, schedule: Q01DX009 (ip), vehicle: saline
[2] = dose: 100.0 mg/kg/injection, schedule: Q01DX009 (ip), vehicle: saline
[3] = dose: 200.0 mg/kg/injection, schedule: Q01DX009 (ip), vehicle: saline
[4] = dose: 400.0 mg/kg/injection, schedule: Q01DX009 (ip), vehicle: saline
[5] = dose: 100.0 mg/kg/injection, schedule: Q01DX009 (ip), vehicle: Klucel (hydroxypropylcellulose) (HPC)
[6] = dose: 200.0 mg/kg/injection, schedule: Q01DX009 (ip), vehicle: Klucel (hydroxypropylcellulose) (HPC)
[7] = dose: 100.0 mg/kg/injection, schedule: Q04DX003 (ip), vehicle: Klucel (hydroxypropylcellulose) (HPC)
[8] = dose: 200.0 mg/kg/injection, schedule: Q04DX003 (ip), vehicle: Klucel (hydroxypropylcellulose) (HPC)
[9] = dose: 400.0 mg/kg/injection, schedule: Q01DX009 (ip), vehicle: Klucel (hydroxypropylcellulose) (HPC)
[10] = dose: 400.0 mg/kg/injection, schedule: Q04DX003 (ip), vehicle: Klucel (hydroxypropylcellulose) (HPC)
[11] = dose: 50.0 mg/kg/injection, schedule: Q01DX009 (ip), vehicle: saline with Tween-80
[12] = dose: 100.0 mg/kg/injection, schedule: Q01DX009 (ip), vehicle: saline with Tween-80
[13] = dose: 200.0 mg/kg/injection, schedule: Q01DX009 (ip), vehicle: saline with Tween-80
[14] = dose: 100.0 mg/kg/injection, schedule: Q04DX003 (ip), vehicle: saline with Tween-80
[15] = dose: 200.0 mg/kg/injection, schedule: Q04DX003 (ip), vehicle: saline with Tween-80
[16] = dose: 400.0 mg/kg/injection, schedule: Q04DX003 (ip), vehicle: saline with Tween-80
[17] = dose: 50.0 mg/kg/injection, schedule: Q01DX001 (ip), vehicle: saline
[18] = dose: 100.0 mg/kg/injection, schedule: Q01DX001 (ip), vehicle: saline
[19] = dose: 200.0 mg/kg/injection, schedule: Q01DX001 (ip), vehicle: saline
[20] = dose: 400.0 mg/kg/injection, schedule: Q01DX001 (ip), vehicle: saline

Measured: T/C

NC12CC3CC(C1)CC(F)(C3)C2
inactive: [1] 101 % of control | [2] 99 % of control | [3] 101 % of control | [4] 93 % of control

O=C(Nc1cccc(C(F)(F)F)c1)C(Br)C(Br)c1ccccc1 (stereo not given)
inactive: [5] 103 % of control | [6] 100 % of control

CC(=O)OCC(O)CO (stereo not given)
inactive: [2] 102 % of control | [3] 96 % of control | [4] 102 % of control

ClC1OC(Cl)(Cl)C(Cl)(Cl)OC1(Cl)Cl (stereo not given)
inactive: [5] 103 % of control | [7] 107 % of control | [6] 93 % of control | [8] 94 % of control | [9] 101 % of control | [10] 96 % of control

ClC(Cl)(Cl)c1ccc(C2OCCO2)cc1
inactive: dose: 177.0 mg/kg/injection, schedule: Q01DX001 (ip), vehicle: other 98 % of control | dose: 266.0 mg/kg/injection, schedule: Q01DX001 (ip), vehicle: other 110 % of control | dose: 400.0 mg/kg/injection, schedule: Q01DX001 (ip), vehicle: other 94 % of control | dose: 600.0 mg/kg/injection, schedule: Q01DX001 (ip), vehicle: other 111 % of control

c1ccc(N2CCOCC2)cc1
inactive: dose: 12.5 mg/kg/injection, schedule: Q01DX009 (ip), vehicle: saline with Tween-80 93 % of control | dose: 25.0 mg/kg/injection, schedule: Q01DX009 (ip), vehicle: saline with Tween-80 100 % of control | [11] 89 % of control | [5] 95 % of control | [12] 92 % of control | [6] 93 % of control | [13] 92 % of control | [9] 101 % of control

S=P(S)(c1ccccc1)c1ccccc1
inactive: [14] 91 % of control | [15] 94 % of control | [16] 100 % of control

CCCCOB(OCCCC)OCCCC
inactive: [17] 104 % of control | [18] 95 % of control | [19] 90 % of control | [20] 106 % of control

O=S(=O)(Cc1ncc2cnccn12)c1ccccc1
inactive: dose: 100.0 mg/kg/injection, schedule: Q04DX003 (ip), vehicle: saline 95 % of control | dose: 200.0 mg/kg/injection, schedule: Q04DX003 (ip), vehicle: saline 103 % of control | dose: 400.0 mg/kg/injection, schedule: Q04DX003 (ip), vehicle: saline 104 % of control

O=C(CCCl)Oc1c(Cl)c(Cl)c(Cl)c(Cl)c1Cl
inactive: dose: 50.0 mg/kg/injection, schedule: Q01DX001 (ip), vehicle: saline with Tween-80 98 % of control | [11] 111 % of control | dose: 50.0 mg/kg/injection, schedule: Q04DX003 (ip), vehicle: saline with Tween-80 95 % of control | dose: 100.0 mg/kg/injection, schedule: Q01DX001 (ip), vehicle: saline with Tween-80 96 % of control | [12] 103 % of control | [14] 97 % of control | dose: 200.0 mg/kg/injection, schedule: Q01DX001 (ip), vehicle: saline with Tween-80 100 % of control | [13] 100 % of control | [15] 93 % of control

O=C1CCOc2ccc(Cl)cc21
inactive: [5] 95 % of control | [6] 101 % of control | [9] 106 % of control

O=C(Cc1ccc2ccccc2c1)c1c[nH]c2ccccc12
inactive: [17] 102 % of control | [18] 102 % of control | [19] 98 % of control | [20] 93 % of control

O=c1cc(-c2ccccc2)ss1
inactive: [5] 100 % of control | [12] 101 % of control | [14] 102 % of control | [6] 102 % of control | [13] 97 % of control | [15] 102 % of control | [9] 105 % of control | dose: 400.0 mg/kg/injection, schedule: Q01DX009 (ip), vehicle: saline with Tween-80 96 % of control | [16] 103 % of control

CCC(=O)OCN1C(=O)C2C3CCC(O3)C2C1=O (stereo not given)
inactive: dose: 87.5 mg/kg/injection, schedule: Q01DX009 (ip), vehicle: other 98 % of control | dose: 175.0 mg/kg/injection, schedule: Q01DX009 (ip), vehicle: other 111 % of control

O=S(=O)(F)c1cc(Cl)ccc1C[P+](c1ccccc1)(c1ccccc1)c1ccccc1
inactive: dose: 10.0 mg/kg/injection, schedule: Q04DX003 (ip), vehicle: saline 97 % of control | dose: 20.0 mg/kg/injection, schedule: Q04DX003 (ip), vehicle: saline 89 % of control

O=C(CF)CCl
inactive: dose: 0.87 mg/kg/injection, schedule: Q01DX009 (ip), vehicle: Klucel (hydroxypropylcellulose) (HPC) 102 % of control | dose: 1.75 mg/kg/injection, schedule: Q01DX009 (ip), vehicle: Klucel (hydroxypropylcellulose) (HPC) 105 % of control | dose: 3.5 mg/kg/injection, schedule: Q01DX009 (ip), vehicle: Klucel (hydroxypropylcellulose) (HPC) 110 % of control | dose: 14.0 mg/kg/injection, schedule: Q04DX003 (ip), vehicle: saline 96 % of control | dose: 28.0 mg/kg/injection, schedule: Q04DX003 (ip), vehicle: saline 112 % of control

COc1ccc2c(O)coc2c1
inactive: [5] 100 % of control | [7] 104 % of control | [6] 101 % of control | [8] 102 % of control | [9] 96 % of control | [10] 93 % of control

O=C(/C=C/c1ccc2c(c1)OCO2)c1ccccc1
inactive: dose: 50.0 mg/kg/injection, schedule: Q01DX009 (ip), vehicle: Klucel (hydroxypropylcellulose) (HPC) 97 % of control | [5] 103 % of control | [7] 102 % of control | [6] 106 % of control | [8] 93 % of control | [9] 103 % of control | [10] 98 % of control

O=C(Oc1cc(OC(=O)c2ccccc2)cc(OC(=O)c2ccccc2)c1)c1ccccc1
inactive: [5] 95 % of control | [7] 100 % of control | [6] 95 % of control | [8] 100 % of control | [9] 95 % of control | [10] 100 % of control

Cc1ccc(S(=O)(=O)OC2CN3CCC2CC3)cc1 (stereo not given)
inactive: dose: 12.5 mg/kg/injection, schedule: Q01DX009 (ip), vehicle: saline 95 % of control | dose: 25.0 mg/kg/injection, schedule: Q01DX009 (ip), vehicle: saline 100 % of control | [1] 101 % of control and 102 % of control

COc1cc(NS(C)(=O)=O)ccc1NS(C)(=O)=O
inactive: [5] 112 % of control | [7] 108 % of control | [6] 108 % of control | [8] 94 % of control | [9] 103 % of control | [10] 100 % of control

COC(=O)C12CCc3cc(OC)ccc3C1=CC(=O)C2 (stereo not given)
inactive: dose: 100.0 mg/kg/injection, schedule: Q04DX003 (ip), vehicle: saline sonified 101 % of control | dose: 200.0 mg/kg/injection, schedule: Q04DX003 (ip), vehicle: saline sonified 95 % of control | dose: 400.0 mg/kg/injection, schedule: Q04DX003 (ip), vehicle: saline sonified 94 % of control

CC12CCC(OC3OC(CO)C(O)C(O)C3O)CC1CCC1C2CCC2(C)C(C3=CC(=O)OC3)CCC12O (stereo not given)
inactive: dose: 10.0 mg/kg/injection, schedule: Q01DX009 (ip), vehicle: saline 101 % of control | dose: 20.0 mg/kg/injection, schedule: Q01DX009 (ip), vehicle: saline 96 % of control | dose: 40.0 mg/kg/injection, schedule: Q01DX009 (ip), vehicle: saline 102 % of control
